Entries after “also recorded” stand apart in the source; their conditions may differ. Values belong to the molecule of their own block, whether it stands above or below them.
Legend:
[1] = target: T1, rat A3 AR (Rattus norvegicus, UniProt P28647); assay: Radioligand binding at rat A3 AR; conditions: for Binding affinity at the rat A3 AR (in words): CHO cells
T1 sequence (P28647 1-320): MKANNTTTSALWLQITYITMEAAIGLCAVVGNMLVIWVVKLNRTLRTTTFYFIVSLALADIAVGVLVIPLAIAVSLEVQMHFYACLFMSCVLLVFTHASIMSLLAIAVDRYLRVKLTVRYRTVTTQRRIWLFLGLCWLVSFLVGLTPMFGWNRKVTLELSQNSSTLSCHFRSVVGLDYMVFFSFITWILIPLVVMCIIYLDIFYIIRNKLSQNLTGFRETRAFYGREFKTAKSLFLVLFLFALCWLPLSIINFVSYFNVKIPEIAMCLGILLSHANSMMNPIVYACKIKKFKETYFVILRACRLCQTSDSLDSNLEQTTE

[2] = target: T2, human A3 AR (Homo sapiens, UniProt P0DMS8); assay: Radioligand binding at human A3 AR; conditions: stated for all subtypes of ARs (hA1, hA2A, hA3)
T2 sequence (P0DMS8 1-318): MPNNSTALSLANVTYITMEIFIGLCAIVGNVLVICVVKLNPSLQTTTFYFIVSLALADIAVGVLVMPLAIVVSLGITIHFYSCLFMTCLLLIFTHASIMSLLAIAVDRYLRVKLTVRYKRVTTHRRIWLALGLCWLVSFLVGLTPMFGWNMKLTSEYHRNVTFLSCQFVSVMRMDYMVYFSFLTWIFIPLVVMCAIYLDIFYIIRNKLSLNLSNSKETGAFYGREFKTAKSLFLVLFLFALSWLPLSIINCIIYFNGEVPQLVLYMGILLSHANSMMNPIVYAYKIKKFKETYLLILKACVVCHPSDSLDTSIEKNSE

[3] = system: human A2B AR; conditions: cited from earlier work

Structure (SMILES): O[C@@H]1[C@H](O)CS[C@H]1n1cnc2c(NCc3cccc(Br)c3)nc(Cl)nc21 [Compound 6d]
Ki [1]: 6.1 ± 1.8 nM

Structure (SMILES): O[C@@H]1[C@H](O)CS[C@H]1n1cnc2c(NCc3cccc(F)c3)nc(Cl)nc21 [Compound 6b]
Ki [1]: 36.2 ± 10.7 nM

Structure (SMILES): O[C@@H]1[C@H](O)CS[C@H]1n1cnc2c(NCc3cccc(I)c3)nc(Cl)nc21 [Compound 6e]
Activity as agonist or antagonist in a cyclic AMP functional assay at the hA2B AR [3]: inactive as agonist or antagonist

Structure (SMILES): CNc1nc(Cl)nc2c1ncn2[C@@H]1SC[C@@H](O)[C@H]1O [Compound 6a]
Ki [1]: 658 ± 160 nM
Binding affinity at the rat A3 AR (in words) [1]: lost their binding affinities

Structure (SMILES): CNc1ncnc2c1ncn2[C@@H]1SC[C@@H](O)[C@H]1O [Compound 7a, (2R,3R,4S)-Tetrahydro-2-(6-(methylamino)-9H-purin-9-yl)thiophene-3,4-diol]
Binding affinity at the rat A3 AR (in words) [1]: totally devoid of A3AR binding affinity; also recorded: lost their binding affinities

More lines, now with the values ahead:

Binding affinity (in words) [2]: totally devoid of binding affinities
Structure (SMILES): O[C@H]1[C@@H](O)CS[C@@H]1n1cnc2c(NCc3cccc(Br)c3)nc(Cl)nc21 [Compound 7f]

Binding affinity (in words) [2]: totally devoid of binding affinities
Structure (SMILES): O[C@H]1[C@@H](O)CS[C@@H]1n1cnc2c(NCc3cccc(I)c3)nc(Cl)nc21 [Compound 7g]

Source: PMC3616494 (Journal of medicinal chemistry, 2008)
